Results on 14 compounds are retold here after patent US10213429B2, “Imidazo-pyrazinyl derivatives useful as soluble guanylate cyclase activators” (Merck Sharp & Dohme Corp., priority 2015, dated 2019).

Test [1] relates to Spontaneously hypertensive rats (SHR). Kind of test: Acute Efficacy in Spontaneously Hypertensive Rats (SHR), telemetry blood pressure. The conditions noted are these: SHR male. It is filed as in vivo, rat. From the text: Acute Efficacy in Spontaneously Hypertensive Rats (SHR)
Spontaneously hypertensive rats (SHR, male, Charles River) were implanted with DSI TA11PA-C40 telemetry device (Data Sciences, Inc., St. Paul, Minn.) under isoflurane or ketamine/metomidine anesthesia. The telemetry unit catheter was inserted into the descending aorta via the femoral artery and the telemetry device was implanted subcutaneously in the left flank area. Animals were allowed to recover from surgery for 14 days before the start of any studies. Blood pressure, heart rate, and activity signals from conscious, freely moving rats were recorded continuously for 30 seconds every 10 minutes. On the day prior to administration of compound, a single oral dose of vehicle (10% transcutol/20% Cremophor/70% water) was administered to all animals to establish baseline control data. The blood pressure lowering efficacy of compound (PO) or vehicle was evaluated following a single oral gavage. Data were collected as hourly averages, and changes in blood pressure were calculated by subtracting control baseline data on an hourly basis. Animals were maintained on normal diet with a 12 hour light-dark cycle.
Maximum peak decreases of systolic blood pressure (SBP) in SHR at a particular P.O. dose (mpk milligrams per kilogram) for the following representative compounds are provided. • Category A=SBP in SHRs<20 mmHg; Category B=SBP in SHRs 20-40 mmHg; • Category C=SBP in SHRs>40 mmHg

Test [2] has as its target T1, sGC α1/β1 heterodimer (Homo sapiens, UniProt Q02108+Q02153).
T1 construct: expressed in transfected cells; host or cells: CHO-K1 (clone #7, CHO-K1/sGC)
T1 sequence (Q02108 1-690): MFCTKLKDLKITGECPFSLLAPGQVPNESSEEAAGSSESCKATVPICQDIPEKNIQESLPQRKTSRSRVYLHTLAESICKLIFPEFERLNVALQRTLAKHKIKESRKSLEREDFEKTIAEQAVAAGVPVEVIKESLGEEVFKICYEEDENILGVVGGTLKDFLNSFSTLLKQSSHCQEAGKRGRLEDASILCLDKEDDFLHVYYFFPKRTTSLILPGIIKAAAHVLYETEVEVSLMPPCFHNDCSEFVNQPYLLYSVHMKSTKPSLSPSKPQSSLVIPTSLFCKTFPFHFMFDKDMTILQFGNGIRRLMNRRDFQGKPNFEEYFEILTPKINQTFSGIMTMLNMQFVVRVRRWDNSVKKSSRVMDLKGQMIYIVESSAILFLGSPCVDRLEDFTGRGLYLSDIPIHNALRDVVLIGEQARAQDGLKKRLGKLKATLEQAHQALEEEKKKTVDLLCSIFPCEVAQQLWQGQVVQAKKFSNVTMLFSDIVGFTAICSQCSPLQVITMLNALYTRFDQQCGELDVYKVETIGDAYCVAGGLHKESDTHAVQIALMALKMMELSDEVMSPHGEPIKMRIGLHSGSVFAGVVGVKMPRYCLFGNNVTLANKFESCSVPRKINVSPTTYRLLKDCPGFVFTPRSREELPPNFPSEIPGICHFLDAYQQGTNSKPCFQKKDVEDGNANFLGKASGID
T1 sequence (Q02153 1-619): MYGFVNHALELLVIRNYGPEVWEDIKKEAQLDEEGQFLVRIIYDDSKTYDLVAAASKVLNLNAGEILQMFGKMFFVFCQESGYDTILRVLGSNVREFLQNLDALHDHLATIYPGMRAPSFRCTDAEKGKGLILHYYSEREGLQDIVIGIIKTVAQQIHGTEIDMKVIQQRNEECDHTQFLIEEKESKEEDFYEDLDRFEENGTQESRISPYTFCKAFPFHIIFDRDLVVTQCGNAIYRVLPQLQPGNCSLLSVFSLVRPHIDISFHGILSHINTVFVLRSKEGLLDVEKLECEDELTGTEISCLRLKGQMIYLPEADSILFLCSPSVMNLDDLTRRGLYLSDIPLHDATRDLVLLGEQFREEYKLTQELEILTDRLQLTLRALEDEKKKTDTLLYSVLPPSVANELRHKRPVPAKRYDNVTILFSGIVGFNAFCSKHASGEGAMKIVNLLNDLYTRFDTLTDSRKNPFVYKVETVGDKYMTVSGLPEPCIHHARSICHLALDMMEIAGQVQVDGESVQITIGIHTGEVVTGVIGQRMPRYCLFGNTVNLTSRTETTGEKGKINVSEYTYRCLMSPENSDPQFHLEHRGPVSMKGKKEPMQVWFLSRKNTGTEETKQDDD
Kind of test: Cell-Based sGC Functional Assay (CASA Assay), cGMP by HTRF in CHO-K1/sGC cells. Conditions: for Emax: CHO-K1, percent activation relative to maximum cGMP production of Compound A (= 100%), read-out: % Act.; for EC50: cGMP production, 1 hr at 37° C., 4P fit, presence or absence of 1 μM DETA-NO not given, read-out: IP (nM) (inflection point). In outline:
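CHO-K1 cells stably expressing human sGC α1/β1, in EBSS buffer with 5 mM MgCl2, 10 mM HEPES, 0.05% BSA and 0.5 mM IBMX, incubated with compound (2.5% DMSO) ± 1 μM DETA-NO, 1 h, 37 °C. Intracellular cGMP read by HTRF; activity as % of reference activator maximum, IP from 4-parameter fit.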
Background: In TR-FRET formats the signal depends on donor and acceptor labels being close together.

Take `CC1(c2ccc(Cl)cn2)C(=O)Nc2nc(-c3cn4ccnc4c(CCC(F)(F)C(F)(F)F)n3)ncc21` (stereo not drawn) [Example 36A, 5-(5-Chloropyridin-2-yl)-5-methyl-2-(8-(3,3,4,4,4-pentafluorobutyl)imidazo[1,2-a]pyrazin-6-yl)-5H-pyrrolo[2,3-d]pyrimidin-6(7H)-one]: the “Cat. (maximum peak decrease of systolic blood pressure (SBP) in SHR)” value in test [1] (single oral dose 0.3 mpk P.O.) was “A (Category A=SBP in SHRs<20 mmHg)”. Moreover, in test [2], the Emax was determined as 104% and the EC50 was 54 nM.

For `O=C1Nc2nc(-c3cn4ccnc4c(CCCC(F)(F)F)n3)ncc2C1(c1ccc(OC(F)(F)F)cc1)C1CC1` (stereo not drawn) [Example 52A, 5-cyclopropyl-2-(8-(4,4,4-trifluorobutyl)imidazo[1,2-a]pyrazin-6-yl)-5-(4-(trifluoromethoxy)phenyl)-5H-pyrrolo[2,3-d]pyrimidin-6(7H)-one], the “Cat. (maximum peak decrease of systolic blood pressure (SBP) in SHR)” value in test [1] (single oral dose 3.0 mpk P.O.) is on record as “A (Category A=SBP in SHRs<20 mmHg)”. For the same compound, in test [2], the Emax is 155% and the EC50 came out at 791 nM.

Turning to `CC1(c2ccc(F)cc2)C(=O)Nc2nc(-c3cn4ccnc4c(Cc4ccc(F)cc4)n3)nc(O)c21` (stereo not drawn) [Example 81A, 2-(8-(4-fluorobenzyl)imidazo[1,2-a]pyrazin-6-yl)-5-(4-fluorophenyl)-4-hydroxy-5-methyl-5H-pyrrolo[2,3-d]pyrimidin-6(7H)-one], the “Cat. (maximum peak decrease of systolic blood pressure (SBP) in SHR)” value in test [1] (single oral dose 1.0 mpk P.O.) is given as “B (Category B=SBP in SHRs 20-40 mmHg)”. Also, in test [2], the Emax amounted to 104% and the EC50 worked out at 144 nM.

Regarding `CC1(c2ccc(F)cn2)C(=O)Nc2nc(-c3cn4ccnc4c(CC4CCC4)n3)ncc21` (stereo not drawn) [Example 65B, 2-(8-(cyclobutylmethyl)imidazo[1,2-a]pyrazin-6-yl)-5-(5-fluoropyridin-2-yl)-5-methyl-5H-pyrrolo[2,3-d]pyrimidin-6(7H)-one], the “Cat. (maximum peak decrease of systolic blood pressure (SBP) in SHR)” value in test [1] (single oral dose 0.3 mpk P.O.) was “B (Category B=SBP in SHRs 20-40 mmHg)”. In test [2], the Emax was found to be 102% and the EC50 turned out to be 71 nM.

For `CC1(c2ccc(F)cc2)C(=O)Nc2nc(-c3cn4ccnc4c(CCC(F)(F)C(F)(F)F)n3)ncc21` (stereo not drawn) [Example 1A, 5-(4-Fluorophenyl)-5-methyl-2-(8-(3,3,4,4,4-pentafluorobutyl)imidazo[1,2-a]pyrazin-6-yl)-5H-pyrrolo[2,3-d]pyrimidin-6(7H)-one], the “Cat. (maximum peak decrease of systolic blood pressure (SBP) in SHR)” value in test [1] (single oral dose 1.0 mpk P.O.) is recorded as “B (Category B=SBP in SHRs 20-40 mmHg)”. Also, in test [2], the Emax was found to be 121% and the EC50 worked out at 228 nM.

`CC1(c2ccc(Cl)cc2)C(=O)Nc2nc(-c3cn4ccnc4c(CCC(F)(F)C(F)(F)F)n3)nc(O)c21` (stereo not drawn) [Example 4A, 5-(4-chlorophenyl)-4-hydroxy-5-methyl-2-(8-(3,3,4,4,4-pentafluorobutyl)imidazo[1,2-a]pyrazin-6-yl)-5H-pyrrolo[2,3-d]pyrimidin-6(7H)-one]: in test [1] (single oral dose 3.0 mpk P.O.), the “Cat. (maximum peak decrease of systolic blood pressure (SBP) in SHR)” value was “B (Category B=SBP in SHRs 20-40 mmHg)”. Further, in test [2], the Emax was 83% and the EC50 was 125 nM.

For the compound `CC1(c2ccc(F)cn2)C(=O)Nc2nc(-c3cn4ccnc4c(CCC(F)(F)C(F)(F)F)n3)ncc21` (stereo not drawn) [Example 62B, 5-(5-fluoropyridin-2-yl)-5-methyl-2-(8-(3,3,4,4,4-pentafluorobutyl)imidazo[1,2-a]pyrazin-6-yl)-5H-pyrrolo[2,3-d]pyrimidin-6(7H)-one], in test [1] (single oral dose 1.0 mpk P.O.), the “Cat. (maximum peak decrease of systolic blood pressure (SBP) in SHR)” value is “B (Category B=SBP in SHRs 20-40 mmHg)”. In test [2], the Emax came to 98% and the EC50 was found to be 104 nM.

Regarding `CC(C)Cc1nc(-c2ncc3c(n2)NC(=O)C3(C)c2ccc(Cl)cn2)cn2ccnc12` (stereo not drawn) [Example 41A, 5-(5-chloropyridin-2-yl)-2-(8-isobutylimidazo[1,2-a]pyrazin-6-yl)-5-methyl-5H-pyrrolo[2,3-d]pyrimidin-6(7H)-one], the “Cat. (maximum peak decrease of systolic blood pressure (SBP) in SHR)” value in test [1] (single oral dose 3.0 mpk P.O.) is given as “A (Category A=SBP in SHRs<20 mmHg)”. Moreover, in test [2], the Emax was determined as 111% and the EC50 amounted to 235 nM.

Consider `CC1(c2ccc(Cl)cc2)C(=O)Nc2nc(-c3cn4ccnc4c(CCC(F)(F)C(F)(F)F)n3)ncc21` (stereo not drawn) [Example 3A, 5-(4-chlorophenyl)-5-methyl-2-(8-(3,3,4,4,4-pentafluorobutyl)imidazo[1,2-a]pyrazin-6-yl)-5H-pyrrolo[2,3-d]pyrimidin-6(7H)-one], for which the “Cat. (maximum peak decrease of systolic blood pressure (SBP) in SHR)” value in test [1] (single oral dose 1.0 mpk P.O.) is reported as “B (Category B=SBP in SHRs 20-40 mmHg)”. Moreover, in test [2], the Emax amounted to 118% and the EC50 amounted to 34 nM.

For the compound `CC1(c2ccc(F)cn2)C(=O)Nc2nc(-c3cn4ccnc4c(CCCC(F)(F)F)n3)ncc21` (stereo not drawn) [Example 66B, 5-(5-fluoropyridin-2-yl)-5-methyl-2-(8-(4,4,4-trifluorobutyl)imidazo[1,2-a]pyrazin-6-yl)-5H-pyrrolo[2,3-d]pyrimidin-6(7H)-one], in test [1] (single oral dose 1.0 mpk P.O.), the “Cat. (maximum peak decrease of systolic blood pressure (SBP) in SHR)” value is recorded as “A (Category A=SBP in SHRs<20 mmHg)”. In test [2], the Emax amounted to 125% and the EC50 worked out at 217 nM.

Regarding `CCCCc1nc(-c2ncc3c(n2)NC(=O)C3(C)c2ccc(F)cc2)cn2ccnc12` (stereo not drawn) [Example 78A, 2-(8-Butylimidazo[1,2-a]pyrazin-6-yl)-5-(4-fluorophenyl)-5-methyl-5H-pyrrolo[2,3-d]pyrimidin-6(7H)-one], the “Cat. (maximum peak decrease of systolic blood pressure (SBP) in SHR)” value in test [1] (single oral dose 1.0 mpk P.O.) is “C (Category C=SBP in SHRs>40 mmHg)”. Further, in test [2], the Emax was found to be 121% and the EC50 amounted to 50 nM.

As for `CCCCc1nc(-c2ncc3c(n2)NC(=O)C3(C)c2ccc(F)cn2)cn2ccnc12` (stereo not drawn) [Example 82B, 2-(8-butylimidazo[1,2-a]pyrazin-6-yl)-5-(5-fluoropyridin-2-yl)-5-methyl-5H-pyrrolo[2,3-d]pyrimidin-6(7H)-one], the “Cat. (maximum peak decrease of systolic blood pressure (SBP) in SHR)” value in test [1] (single oral dose 1.0 mpk P.O.) is recorded as “C (Category C=SBP in SHRs>40 mmHg)”. In addition, in test [2], the Emax stood at 63% and the EC50 stood at 37 nM.

`CCCc1nc(-c2ncc3c(n2)NC(=O)C3(C)c2ccc(Cl)cc2)cn2ccnc12` (stereo not drawn) [Example 39A, 5-(4-chlorophenyl)-5-methyl-2-(8-propylimidazo[1,2-a]pyrazin-6-yl)-5H-pyrrolo[2,3-d]pyrimidin-6(7H)-one]: the “Cat. (maximum peak decrease of systolic blood pressure (SBP) in SHR)” value in test [1] (single oral dose 1.0 mpk P.O.) was “A (Category A=SBP in SHRs<20 mmHg)”. Besides, in test [2], the Emax was found to be 101% and the EC50 came out at 92 nM.

As for `CC1(c2ccc(Cl)cn2)C(=O)Nc2nc(-c3cn4ccnc4c(Cc4ccc(F)cc4)n3)ncc21` (stereo not drawn) [Example 42A, 5-(5-chloropyridin-2-yl)-2-(8-(4-fluorobenzyl)imidazo[1,2-a]pyrazin-6-yl)-5-methyl-5H-pyrrolo[2,3-d]pyrimidin-6(7H)-one], the “Cat. (maximum peak decrease of systolic blood pressure (SBP) in SHR)” value in test [1] (single oral dose 0.3 mpk P.O.) was “B (Category B=SBP in SHRs 20-40 mmHg)”. Moreover, in test [2], the Emax came out at 124% and the EC50 turned out to be 4 nM.
